Test results: ChEMBL document CHEMBL1201862, “PubChem BioAssay data set” (2004)
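Method: 48-hour compound exposure of cells in 96-well plates, five concentrations, linear interpolation of endpoints. Abbreviation: GI50, concentration required for 50% inhibition of growth.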 Calls of active or inactive are those of the source. Rule as the data show it: active = GI50 up to about 1.1 µM and inactive = higher.

How the values were obtained:
Test in all cases: inhibition of tumour cell growth, NCI panel, 48 h
SK-OV-3 = test system: SK-OV-3
HOP-92 = test system: HOP-92
SK-MEL-28 = test system: SK-MEL-28
UACC-62 = test system: UACC-62
NCI-H23 = test system: NCI-H23
COLO 205 = test system: COLO 205
OVCAR-8 = test system: OVCAR-8
SW-620 = test system: SW-620
SNB-75 = test system: SNB-75
HOP-62 = test system: HOP-62
SNB-78 = test system: SNB-78
M19-MEL = test system: M19-MEL
OVCAR-4 = test system: OVCAR-4
OVCAR-3 = test system: OVCAR-3
IGROV-1 = test system: IGROV-1
DLD-1 = test system: DLD-1
SN12C = test system: SN12C
A549 = test system: A549
NCI-H226 = test system: NCI-H226
CAKI-1 = test system: CAKI-1
OVCAR-5 = test system: OVCAR-5
K562 = test system: K562
LOX IMVI = test system: LOX IMVI
HCT-15 = test system: HCT-15
SK-MEL-2 = test system: SK-MEL-2
CCRF-CEM = test system: CCRF-CEM
KM-20L2 = test system: KM-20L2
HCC 2998 = test system: HCC 2998
A498 = test system: A498
Malme-3M = test system: Malme-3M
NCI-H522 = test system: NCI-H522
MOLT-4 = test system: MOLT-4
RPMI-8226 = test system: RPMI-8226
NCI/ADR-RES = test system: NCI/ADR-RES
NCI-H460 = test system: NCI-H460
DMS-114 = test system: DMS-114
MCF7 = test system: MCF7
RXF 393 = test system: RXF 393
SF-295 = test system: SF-295
HL-60 = test system: HL-60
SK-MEL-5 = test system: SK-MEL-5
HT-29 = test system: HT-29
SF-539 = test system: SF-539
HOP-18 = test system: HOP-18
HCT-116 = test system: HCT-116
UACC-257 = test system: UACC-257
XF498 = test system: XF498
DMS-273 = test system: DMS-273
UO-31 = test system: UO-31
U-251 = test system: U-251
KM12 = test system: KM12
SNB-19 = test system: SNB-19
SF-268 = test system: SF-268
EKVX = test system: EKVX
LXFL 529 = test system: LXFL 529
TK-10 = test system: TK-10
786-0 = test system: 786-0
SR = test system: SR
ACHN = test system: ACHN
M14 = test system: M14

With `CN(C)C(CN)CC1=C(CC(CN)N(C)C)CCC1` (stereo not drawn) the GI50 (SK-OV-3) was > 100 µM (inactive), the GI50 (HOP-92) was > 100 µM (inactive) and the GI50 (SK-MEL-28) was > 100 µM (inactive). The GI50 (UACC-62) was > 100 µM (inactive), the GI50 (NCI-H23) was > 100 µM (inactive) and the GI50 (COLO 205) was > 100 µM (inactive). The GI50 (OVCAR-8) was > 100 µM (inactive), the GI50 (SW-620) was > 100 µM (inactive) and the GI50 (SNB-75) was > 100 µM (inactive). The GI50 (HOP-62) was > 100 µM (inactive), the GI50 (SNB-78) was > 100 µM (inactive) and the GI50 (M19-MEL) was > 100 µM (inactive). The GI50 (OVCAR-4) was > 100 µM (inactive), the GI50 (OVCAR-3) was > 100 µM (inactive) and the GI50 (IGROV-1) was > 100 µM (inactive). For the same compound, the GI50 (DLD-1) was > 100 µM (inactive), the GI50 (SN12C) was > 100 µM (inactive) and the GI50 (A549) was > 100 µM (inactive). For the same compound, the GI50 (NCI-H226) was > 100 µM (inactive), the GI50 (CAKI-1) was > 100 µM (inactive) and the GI50 (OVCAR-5) was > 100 µM (inactive). The GI50 (K562) was > 100 µM (inactive), the GI50 (LOX IMVI) was > 100 µM (inactive) and the GI50 (HCT-15) was over 100 µM. The GI50 (SK-MEL-2) was > 100 µM (inactive), the GI50 (CCRF-CEM) was > 100 µM (inactive) and the GI50 (KM-20L2) was > 100 µM (inactive). The GI50 (HCC 2998) was > 100 µM (inactive), the GI50 (A498) was > 100 µM (inactive) and the GI50 (Malme-3M) was > 100 µM (inactive). The GI50 (NCI-H522) was > 100 µM (inactive), the GI50 (MOLT-4) was > 100 µM (inactive) and the GI50 (RPMI-8226) was > 100 µM (inactive). For the same compound, the GI50 (NCI/ADR-RES) was > 100 µM (inactive), the GI50 (NCI-H460) was > 100 µM (inactive) and the GI50 (DMS-114) was > 100 µM (inactive). The GI50 (MCF7) was > 100 µM (inactive), the GI50 (RXF 393) was > 100 µM (inactive) and the GI50 (SF-295) was > 100 µM (inactive). For the same compound, the GI50 (HL-60) was > 100 µM (inactive), the GI50 (SK-MEL-5) was > 100 µM (inactive) and the GI50 (HT-29) was > 100 µM (inactive). The GI50 (SF-539) was > 100 µM (inactive), the GI50 (HOP-18) was > 100 µM (inactive) and the GI50 (HCT-116) was > 100 µM (inactive). For the same compound, the GI50 (UACC-257) was > 100 µM (inactive), the GI50 (XF498) was > 100 µM (inactive) and the GI50 (DMS-273) was > 100 µM (inactive). For the same compound, the GI50 (UO-31) was > 100 µM (inactive), the GI50 (U-251) was > 100 µM (inactive) and the GI50 (KM12) was > 100 µM (inactive). The GI50 (SNB-19) was > 100 µM (inactive), the GI50 (SF-268) was > 100 µM (inactive) and the GI50 (EKVX) was > 100 µM (inactive).

For `CC1CCC2CC(=O)OC([C@@H]3C(=O)O[C@@H](C4=CCCC4)C4C(C)CCC43)C12` (stereo partly drawn), the GI50 (SK-OV-3) was > 100 µM (inactive), the GI50 (SK-MEL-28) was > 100 µM (inactive) and the GI50 (UACC-62) was > 100 µM (inactive). The GI50 (NCI-H23) was > 100 µM (inactive), the GI50 (COLO 205) was 32.4 µM (inactive) and the GI50 (OVCAR-8) was 68.5 µM (inactive). For the same compound, the GI50 (SW-620) was 70 µM (inactive), the GI50 (LXFL 529) was 47.4 µM (inactive) and the GI50 (SNB-75) was > 100 µM (inactive). For the same compound, the GI50 (HOP-62) was > 100 µM (inactive), the GI50 (SNB-78) was > 100 µM (inactive) and the GI50 (M19-MEL) was > 100 µM (inactive). The GI50 (TK-10) was 54.5 µM (inactive), the GI50 (OVCAR-4) was > 10 µM (inactive) and the GI50 (OVCAR-3) was 73.1 µM (inactive). The GI50 (IGROV-1) was 80.2 µM (inactive), the GI50 (DLD-1) was 84.5 µM (inactive) and the GI50 (SN12C) was > 100 µM (inactive). The GI50 (A549) was > 100 µM (inactive), the GI50 (NCI-H226) was > 100 µM (inactive) and the GI50 (CAKI-1) was 72.6 µM (inactive). For the same compound, the GI50 (786-0) was > 100 µM (inactive), the GI50 (K562) was 43.7 µM (inactive) and the GI50 (LOX IMVI) was > 100 µM (inactive). For the same compound, the GI50 (SR) was 39 µM (inactive), the GI50 (HCT-15) was 48.2 µM and the GI50 (SK-MEL-2) was > 100 µM (inactive). For the same compound, the GI50 (CCRF-CEM) was 34.8 µM (inactive), the GI50 (KM-20L2) was 92.3 µM (inactive) and the GI50 (HCC 2998) was > 100 µM (inactive). For the same compound, the GI50 (Malme-3M) was > 100 µM (inactive), the GI50 (NCI-H522) was 51.3 µM (inactive) and the GI50 (MOLT-4) was 36.2 µM (inactive). The GI50 (RPMI-8226) was 37.2 µM (inactive), the GI50 (NCI-H460) was 58.1 µM (inactive) and the GI50 (DMS-114) was 27.7 µM (inactive). The GI50 (RXF 393) was > 100 µM (inactive), the GI50 (SF-295) was 79.1 µM (inactive) and the GI50 (HL-60) was 23.1 µM (inactive). The GI50 (SK-MEL-5) was 97.7 µM (inactive), the GI50 (HT-29) was 61 µM (inactive) and the GI50 (SF-539) was > 100 µM (inactive). For the same compound, the GI50 (HOP-18) was > 100 µM (inactive), the GI50 (ACHN) was 61.4 µM (inactive) and the GI50 (HCT-116) was 43.9 µM (inactive). For the same compound, the GI50 (UACC-257) was > 100 µM (inactive), the GI50 (XF498) was > 100 µM (inactive) and the GI50 (DMS-273) was > 100 µM (inactive). For the same compound, the GI50 (UO-31) was > 100 µM (inactive), the GI50 (M14) was > 100 µM (inactive) and the GI50 (U-251) was 48.6 µM (inactive). For the same compound, the GI50 (KM12) was 42 µM (inactive), the GI50 (SNB-19) was > 100 µM (inactive) and the GI50 (SF-268) was > 100 µM (inactive). The GI50 (EKVX) was > 100 µM (inactive).

In the case of `CCOC(=O)/C(O)=C1\C(=O)N(C)C(=O)C1c1ccc(OC)c(OC)c1` (stereo not drawn), the GI50 (SK-OV-3) is reported as > 100 µM (inactive), the GI50 (HOP-92) is reported as > 100 µM (inactive) and the GI50 (SK-MEL-28) is reported as > 100 µM (inactive). For the same compound, the GI50 (UACC-62) was > 100 µM (inactive), the GI50 (NCI-H23) was > 100 µM (inactive) and the GI50 (COLO 205) was > 100 µM (inactive). For the same compound, the GI50 (OVCAR-8) was > 100 µM (inactive), the GI50 (SW-620) was > 31.6 µM (inactive) and the GI50 (SNB-75) was > 100 µM (inactive). For the same compound, the GI50 (HOP-62) was > 100 µM (inactive), the GI50 (SNB-78) was > 100 µM (inactive) and the GI50 (M19-MEL) was > 100 µM (inactive). For the same compound, the GI50 (OVCAR-4) was > 100 µM (inactive), the GI50 (OVCAR-3) was > 100 µM (inactive) and the GI50 (IGROV-1) was > 100 µM (inactive). For the same compound, the GI50 (DLD-1) was > 100 µM (inactive), the GI50 (SN12C) was > 100 µM (inactive) and the GI50 (A549) was > 100 µM (inactive). For the same compound, the GI50 (NCI-H226) was > 100 µM (inactive), the GI50 (CAKI-1) was > 100 µM (inactive) and the GI50 (OVCAR-5) was > 100 µM (inactive). For the same compound, the GI50 (K562) was > 100 µM (inactive), the GI50 (LOX IMVI) was > 100 µM (inactive) and the GI50 (HCT-15) was over 100 µM. For the same compound, the GI50 (SK-MEL-2) was > 100 µM (inactive), the GI50 (CCRF-CEM) was > 100 µM (inactive) and the GI50 (KM-20L2) was > 100 µM (inactive). For the same compound, the GI50 (HCC 2998) was > 100 µM (inactive), the GI50 (A498) was > 100 µM (inactive) and the GI50 (Malme-3M) was > 100 µM (inactive). The GI50 (NCI-H522) was > 100 µM (inactive), the GI50 (MOLT-4) was > 100 µM (inactive) and the GI50 (RPMI-8226) was > 100 µM (inactive). For the same compound, the GI50 (NCI/ADR-RES) was > 100 µM (inactive), the GI50 (NCI-H460) was > 100 µM (inactive) and the GI50 (DMS-114) was > 100 µM (inactive). The GI50 (MCF7) was > 100 µM (inactive), the GI50 (RXF 393) was > 100 µM (inactive) and the GI50 (SF-295) was > 100 µM (inactive). The GI50 (HL-60) was > 100 µM (inactive), the GI50 (SK-MEL-5) was > 100 µM (inactive) and the GI50 (HT-29) was > 100 µM (inactive). For the same compound, the GI50 (SF-539) was > 100 µM (inactive), the GI50 (HOP-18) was > 100 µM (inactive) and the GI50 (HCT-116) was > 100 µM (inactive). For the same compound, the GI50 (UACC-257) was > 100 µM (inactive), the GI50 (XF498) was > 100 µM (inactive) and the GI50 (DMS-273) was > 100 µM (inactive). The GI50 (UO-31) was > 100 µM (inactive), the GI50 (U-251) was > 100 µM (inactive) and the GI50 (KM12) was > 100 µM (inactive). For the same compound, the GI50 (SNB-19) was > 100 µM (inactive), the GI50 (SF-268) was > 100 µM (inactive) and the GI50 (EKVX) was > 100 µM (inactive).
